Test system: 186277-243-T-J2-PDC complex spheroid viability
Test: Anticancer human tumor 186277-243-T-J2-PDC patient-derived colon adenocarcinoma cell line growth inhibition
Conditions: for IC50: curve of first compound; for viability, T/C: stronger effect = lower value
Method in brief: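 Multicellular complex spheroids of tumor cells with human endothelial cells (HUVEC) and mesenchymal stem cells; the LSD1 inhibitor iadademstat was combined with standard-of-care or investigational agents. Top concentration at or near clinical Cmax, half-log dilutions; final DMSO ≤0.25%.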

[1] = second compound 0.1 µM, first compound 0.0316 µM
[2] = second compound 0.1 µM, first compound 0.1 µM
[3] = second compound 0.1 µM, first compound 0.316 µM
[4] = second compound 0.1 µM, first compound 1 µM
[5] = second compound 0.1 µM, first compound 3.16 µM
[6] = second compound 0.1 µM, first compound 10 µM
[7] = second compound 0.316 µM, first compound 0.0316 µM
[8] = second compound 0.316 µM, first compound 0.1 µM
[9] = second compound 0.316 µM, first compound 0.316 µM
[10] = second compound 0.316 µM, first compound 1 µM
[11] = second compound 0.316 µM, first compound 3.16 µM
[12] = second compound 0.316 µM, first compound 10 µM
[13] = second compound 1 µM, first compound 0.0316 µM
[14] = second compound 1 µM, first compound 0.1 µM
[15] = second compound 1 µM, first compound 0.316 µM
[16] = second compound 1 µM, first compound 1 µM
[17] = second compound 1 µM, first compound 3.16 µM
[18] = second compound 1 µM, first compound 10 µM
[19] = second compound 3.16 µM, first compound 0.0316 µM
[20] = second compound 3.16 µM, first compound 0.1 µM
[21] = second compound 3.16 µM, first compound 0.316 µM
[22] = second compound 3.16 µM, first compound 1 µM
[23] = second compound 3.16 µM, first compound 3.16 µM
[24] = second compound 3.16 µM, first compound 10 µM
[25] = second compound 10 µM, first compound 0.0316 µM
[26] = second compound 10 µM, first compound 0.1 µM
[27] = second compound 10 µM, first compound 0.316 µM
[28] = second compound 10 µM, first compound 1 µM
[29] = second compound 10 µM, first compound 3.16 µM
[30] = second compound 10 µM, first compound 10 µM
[31] = second compound 0.1 µM, first compound 0.00316 µM
[32] = second compound 0.1 µM, first compound 0.01 µM
[33] = second compound 0.316 µM, first compound 0.00316 µM
[34] = second compound 0.316 µM, first compound 0.01 µM
[35] = second compound 1 µM, first compound 0.00316 µM
[36] = second compound 1 µM, first compound 0.01 µM
[37] = second compound 3.16 µM, first compound 0.00316 µM
[38] = second compound 3.16 µM, first compound 0.01 µM
[39] = second compound 10 µM, first compound 0.00316 µM
[40] = second compound 10 µM, first compound 0.01 µM
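Further: 7 day exposure to compounds.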
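Wherever viability, T/C is given: 100% = DMSO vehicle control viability.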

Structure (SMILES) | IC50 (second compound 0.1 µM) [nM] | IC50 (second compound 0.316 µM) [nM] | IC50 (second compound 1 µM) [nM] | IC50 (second compound 3.16 µM) [nM] | IC50 (second compound 10 µM) [nM] | viability, T/C [1] [%] | viability, T/C [2] [%] | viability, T/C [3] [%] | viability, T/C [4] [%] | viability, T/C [7] [%] | viability, T/C [8] [%] | viability, T/C [9] [%] | viability, T/C [10] [%] | viability, T/C [13] [%] | viability, T/C [14] [%] | viability, T/C [15] [%] | viability, T/C [16] [%] | viability, T/C [19] [%] | viability, T/C [20] [%] | viability, T/C [21] [%] | other results
CC(C)c1c(-c2ccccc2)nc2c(C#N)c[nH]n2c1=O + NC1CCC(NC2CC2c2ccccc2)CC1 | > 10000 | > 10000 | > 10000 | > 10000 | > 10000 | 112 | 118 | 114 | 105 | 108 | 125 | 115 | 115 | 110 | 110 | 108 | 112 | 112 | 119 | 112 | viability, T/C [5]: 114%; viability, T/C [6]: 103%; viability, T/C [11]: 108%; viability, T/C [12]: 96.8%; viability, T/C [17]: 109%; viability, T/C [18]: 106%; viability, T/C [22]: 121%; viability, T/C [23]: 107%; viability, T/C [24]: 105%; viability, T/C [25]: 104%; viability, T/C [26]: 101%; viability, T/C [27]: 107%; viability, T/C [28]: 110%; viability, T/C [29]: 101%; viability, T/C [30]: 90.5%
CC1COCCN1c1cc(-c2ccnn2C)c2ccnc(-c3ccn[nH]3)c2n1 (stereo not given) + NC1CCC(NC2CC2c2ccccc2)CC1 | 6.56 | 6.04 | 5.63 | 6.34 | 5.91 | 10.9 | 9.28 | 10 | 11.5 | 10.2 | 8.48 | 9.85 | 11.8 | 11.1 | 8.48 | 9.78 | 12.1 | 10.4 | 8.64 | 9.76 | viability, T/C [31]: 84.2%; viability, T/C [32]: 30.2%; viability, T/C [33]: 74.5%; viability, T/C [34]: 30.9%; viability, T/C [35]: 69.3%; viability, T/C [36]: 30.8%; viability, T/C [37]: 79.9%; viability, T/C [38]: 30.4%; viability, T/C [22]: 12%; viability, T/C [39]: 71.8%; viability, T/C [40]: 31.6%; viability, T/C [25]: 11%; viability, T/C [26]: 9.23%; viability, T/C [27]: 9.95%; viability, T/C [28]: 11.8%
CC1COCCN1c1cc(C2(S(C)(=N)=O)CC2)nc(-c2ccnc3[nH]ccc23)n1 (stereo not given) + NC1CCC(NC2CC2c2ccccc2)CC1 | 438 | 457 | 440 | 517 | 533 | 123 | 108 | 63 | 17.9 | 117 | 115 | 65.1 | 17.7 | 118 | 112 | 62.8 | 17.5 | 122 | 123 | 71.3 | viability, T/C [5]: 10.8%; viability, T/C [6]: 6.11%; viability, T/C [11]: 11%; viability, T/C [12]: 7.27%; viability, T/C [17]: 11.1%; viability, T/C [18]: 6.95%; viability, T/C [22]: 21.8%; viability, T/C [23]: 11.5%; viability, T/C [24]: 7.92%; viability, T/C [25]: 115%; viability, T/C [26]: 123%; viability, T/C [27]: 71%; viability, T/C [28]: 26.1%; viability, T/C [29]: 16.7%; viability, T/C [30]: 9.23%
COc1ccc([C@@H](O)c2cc(-c3ncnc4cc(N5CCOCC5)ccc34)c(F)cc2Cl)nn1 + NC1CCC(NC2CC2c2ccccc2)CC1 | 4320 | 4430 | 4480 | 4300 | 3860 | 112 | 119 | 112 | 93.2 | 128 | 143 | 105 | 100 | 116 | 118 | 108 | 109 | 122 | 126 | 122 | viability, T/C [5]: 67.3%; viability, T/C [6]: 7%; viability, T/C [11]: 72.7%; viability, T/C [12]: 5.45%; viability, T/C [17]: 68.7%; viability, T/C [18]: 6.38%; viability, T/C [22]: 97.9%; viability, T/C [23]: 67.5%; viability, T/C [24]: 5.71%; viability, T/C [25]: 109%; viability, T/C [26]: 118%; viability, T/C [27]: 104%; viability, T/C [28]: 101%; viability, T/C [29]: 59%; viability, T/C [30]: 5.79%
O=C(C=Cn1cnc(-c2cc(C(F)(F)F)cc(C(F)(F)F)c2)n1)NNc1cnccn1 + NC1CCC(NC2CC2c2ccccc2)CC1 | 16.6 | 18.6 | 17 | 18.2 | 16.8 | 19.7 | 5.58 | 3.09 | 0.76 | 20.9 | 10.7 | 3.03 | 2.56 | 19.3 | 7.63 | 3.96 | 0.59 | 19.2 | 5.56 | 5.32 | viability, T/C [31]: 98.7%; viability, T/C [32]: 73.7%; viability, T/C [33]: 98.9%; viability, T/C [34]: 83.6%; viability, T/C [35]: 91.4%; viability, T/C [36]: 76.3%; viability, T/C [37]: 121%; viability, T/C [38]: 83.3%; viability, T/C [22]: 0.63%; viability, T/C [39]: 131%; viability, T/C [40]: 76.8%; viability, T/C [25]: 17.3%; viability, T/C [26]: 4.86%; viability, T/C [27]: 3.33%; viability, T/C [28]: 0.57%
